What was measured:
[1] = In vitro lucigenin chemiluminescence (CL) assay of superoxide generation in the presence of GSH
Protocol: Methylseleninic acid (CH3SeOOH) was a dissolved in distilled water. Using a Rannin micropipette, aliquots were added directly to 1.0 ml of a buffered cocktail solution. The buffered cocktail solution was comprised of lucigenin (20 μg/ml), reduced glutathione (GSH) (4 mg/ml), and either sodium borate (0.05M) or sodium phosphate (0.05M), all purchased from Sigma Chemical Co. Two different buffered cocktail solutions were employed: the cocktail containing sodium borate was used for experiments at pH 9.2, which is optimum for the generation, detection and quenching of selenium catalyzed superoxide; and the cocktail containing sodium phosphate was used for experiments at pH 7.4, which is reflective of physiological conditions. One ml of the cocktail solution was added to a 10×50 mm polypropylene tube for use in the chemiluminescence (CL) assay. Chemiluminescence, using lucigenin as the detector of superoxide, was counted in repetitive integrated 30 second increments over time using a Los Alamos Diagnostics (Model 535) chemiluminometer, to which was attached a LKB Model 2209 circulating water bath that held the tube at 36° C. All chemical test assays and controls were performed by the addition of methylseleninic acid directly to the luminometer test tube in the counting chamber. Superoxide dismutase, SOD, purchased from Sigma Chemical Co., was added to the test tube prior to the addition of the methylseleninic acid and used to quench the chemiluminescent reactions.
The complete chemiluminescence cocktail (containing buffer, lucigenin and GSH) produced very low, yet detectable amounts of background chemiluminescence at both a pH of 9.2 and 7.4. This was most likely due to the ambient spontaneous oxidation of GSH, but was not significant to the tests performed. […] Thus the chemiluminescence produced and quantitated in these assays can be attributable to the generation of superoxide. […] The chemiluminescence generated by selenoate catalysis may be used to quantitatively approximate the amount of catalytic selenium present.

[2] = tested on: cells in culture; settings: cited from earlier work
[3] = selenol or thiol group; cited from earlier work
[4] = tested on: mammary tumors; settings: 1 and 2 ppm in rats' diets; cited from earlier work
[5] = tested on: pre-neoplastic and tumor cell lines; settings: cited from earlier work
[6] = tested on: colon carcinogenisis; settings: dietary 1.0-2.0 ppm; cited from earlier work
[7] = tested on: rats; settings: acute toxicity, reported (Spallholz, 1994); cited from earlier work
[8] = tested on: lung, cholorectal and prostate cancer; settings: dietary supplement up to 200 μg/Se/day more than that found in foods; cited from earlier work
[9] = Acute toxicity in a mouse (FIG. 3); settings: in vivo
Protocol: FIG. 3 is a graphic comparison showing the acute toxicity of L-Se-methylselenocysteine in a mouse versus the acute toxicity of selenomethionine in rats.
(§1) FIG. 1 illustrates a comparison between L-Se-methylselenocysteine and L-selenomethionine, and their effect on the growth of normal rabbit fibroblasts. Tests were performed at varying concentrations of L-Se-methylselenocysteine and L-selenomethionine over a three-day period. The amount of cellular growth, as measured by DNA synthesis, that could be stimulated by calf serum at the end of this period was assessed by the addition of tritiated thymidine.

[10] = Solubility of the obtained amino acid in solvents; type: physicochemical
Source text: It is contemplated that ion exchange chromatography may be used to purify the amino acid. It is also possible that, on a larger scale, L-Se-methylselenocysteine may be crystallized. […] Accordingly, ethanol may be one likely crystallization solvent.

[11] = tested on: human cancer cells; test: Toxicity to cancer cells, same protocol as normal cells (FIG. 2); type: cell-based; settings: compared with selenomethionine
Protocol: FIG. 2 is a graphic comparison showing that L-Se-methylselenocysteine is more toxic to human cancer cells than L-selenomethionine.
as §1

[12] = tested on: normal rabbit fibroblasts; test: Growth of normal rabbit fibroblasts, DNA synthesis by tritiated thymidine (FIG. 1); type: cell-based; settings: three-day period, compared with selenomethionine
Protocol: FIG. 1 is a graphic comparison between L-Se-methylselenocysteine and L-selenomethionine and their effect on the growth of normal rabbit fibroblasts.
as §1

C[SeH] [methylselenol]
superoxide generation / chemiluminescence in the in vitro CL assay ([1]; pH not stated): very active redox compound producing superoxide

O=[Se](O)O [selenite]
induction of apoptosis [2]: induces DNA ladders and apoptosis

N[C@@H](CS)C(=O)O [cysteine]
pKa [3]: 8-9

CS [methylthiol]
quenching of chemiluminescence by SOD ([1]; pH not stated): SOD did not significantly quench the chemiluminescence
superoxide generation / chemiluminescence in the in vitro CL assay ([1]; pH not stated): only a fraction of the amount of chemiluminescence as compared to methylselenol

C[Se]C[C@H](N)C(=O)O (racemic) [Se-methylselenocysteine]
appearance of palpable mammary tumors [4]: decreases the appearance of palpable mammary tumors
anticancer effects (cell morphology, cell number, DNA strand breaks) [5]: beneficial anticancer effects

C[Se]CC[C@H](N)C(=O)O [L-selenomethionine]
effect on the promotional stages of rat colon carcinogenisis [6]: inhibitory effect
LD50 [7]: 4.25 mg/kg
cancer incidence in humans [8]: reduce the incidence of lung, cholorectal and prostate cancer
superoxide generation / chemiluminescence in the in vitro CL assay ([1]; pH not stated): do not generate superoxide

N[C@@H](C[SeH])C(=O)O [selenocysteine]
pKa [3]: 5.25

C[Se]C[C@H](N)C(=O)O [L-Se-methylselenocysteine]
LD50 [9]: 8 mg/kg
solubility ([10]; in ethanol): sparingly soluble
solubility ([10]; in methanol): fairly soluble
solubility ([10]; in water): soluble
toxicity to cancer cells [11]: more toxic to cancer cells
superoxide generation / chemiluminescence in the in vitro CL assay ([1]; pH not stated): do not generate superoxide
toxicity to normal cells (growth, DNA synthesis) [12]: less toxic to normal cells

C[Se](=O)O [methylseleninic acid, Methylseleninic acid]
lowest level at which chemiluminescence (superoxide generation) could be detected ([1]; FIG. 4, GSH reduction): 0.56 nanomoles of selenium
quenching of chemiluminescence by SOD ([1]; pH 7.4, 100 units of SOD): quenched most of the chemiluminescence activity
chemiluminescence ([1]; pH 7.4, complete cocktail with GSH and lucigenin): produced chemiluminescence
quenching of chemiluminescence by SOD ([1]; pH 9.2, 100 units of SOD added prior): quenched an initial burst of chemiluminescence activity
superoxide generation (chemiluminescence) ([1]; pH 9.2, complete cocktail with GSH and lucigenin): generated superoxide
chemiluminescence with lucigenin alone ([1]; without GSH, pH 9.2 and 7.4): produced no additional chemiluminescence
chemiluminescence with GSH alone ([1]; without lucigenin, pH 9.2 and 7.4): produced no additional chemiluminescence
